Measured values: patent publication US20260144784A1, “COMPOSITION FOR PREVENTING OR TREATING MELAS SYNDROME, CONTAINING ISOPQUINOLINE DERIVATIVE AS ACTIVE INGREDIENT” (ALTMEDICAL CO., LTD., priority 2022, published 2026)

Tests used:
[1] = system: mitochondrial membrane potential; experiment: mitochondrial membrane potential, TMRM assay; format: cell-based; conditions: CD1-012 10 μM or 15 μM, CCCP 10 μM, 24 hours
Description: (§1) It was confirmed whether the isoquinoline derivative according to the present invention induces mitochondrial dysfunction, similar to CCCP. To this end, the CD1-012 (10 μM or 15 μM) and CCCP (10 μM) were treated for 24 hours, and the mitochondrial membrane potential and mitochondrial reactive oxygen species (ROS) levels in each sample were analyzed. Mitochondrial membrane potential was analyzed using the TMRM (tetramethylrhodamine methyl ester) assay, and mitochondrial ROS levels were analyzed using the MitoSOX assay.

[2] = system: mitochondrial reactive oxygen species (ROS); experiment: mitochondrial reactive oxygen species, MitoSOX assay; format: cell-based; conditions: CD1-012 10 μM or 15 μM, CCCP 10 μM, 24 hours
Description: as §1

[3] = system: PINK1 knockdown cell line (shPINK1); experiment: mitophagy activity by FACS in PINK1 knockdown BEAS-2B cell line; format: cell-based, human; conditions: CCCP 10 μM, CD1-012 15 μM, 18 hours
Description: In this example, it was confirmed whether the mitophagy activation function of the isoquinoline derivative according to the present invention is dependent on the PINK1-Parkin pathway. To this end, after a BEAS-2B cell line, in which PINK1 was knocked down using short hairpin RNA (shRNA), was treated with CCCP (10 μM) of Comparative Example 1 or CD1-012 (15 μM) for 18 hours, the mitophagy activity of each sample was analyzed using flow cytometry (FACS).

BEAS-2B cell line [4] = experiment: mitophagy activity, mt-Keima fluorescent protein in BEAS-2B cells (FACS, confocal microscope, mito-YFP); format: cell-based, human; conditions: BEAS-2B mt-Keima
Description: To analyze the mitophagy-promoting activity effect of the CD1-012 synthesized in the Example 1, the BEAS-2B cell line, which is a human normal lung cell line, was induced to express the mt-Keima fluorescent protein. Following this, the CD1-012 (15 μM) and the compound of Comparative Example 1, CCCP (10 μM), were treated for 24 hours. After the treatment, the mitophagy activity of each sample was measured, and the results were represented in FIGS. 1A to 1C.
Specifically, FIG. 1A represents the analysis results using flow cytometry (FACS) (treatment of CD1-012 at 15 μM for 24 hours), FIG. 1B represents the analysis results using a confocal microscope (treatment of CD1-012 at 15 μM for 18 hours), and FIG. 1C represents the measurement results of the quantitative changes in the mitochondria using a fluorescent protein, mito-YFP, which includes a targeting sequence to transport protein to the mitochondria (treatment of CD1-012 at 20 μM for 24 hours).
It was confirmed whether CD1-012 synthesized in Example 1 promotes mitophagy activity in a concentration- and time-dependent manner. To this end, the CD1-012 was treated at various concentrations or at a fixed concentration (15 μM) for different treatment durations in the BEAS-2B cell line expressing mt-Keima, and mitophagy activity was measured using a flow cytometer.
(§2) It was confirmed whether CD1-012 synthesized in Example 1 specifically increases only mitophagy activity. To this end, the BEAS-2B cell line expressing mt-Keima was treated with CD1-012 (15 μM) or Comparative Example 1 (CCCP, 10 μM) for 18 hours, and mitophagy activity was analyzed using a confocal microscope. Additionally, to measure autophagy activity, the BEAS-2B cell line expressing Keima fluorescent protein was incubated in Hanks' balanced salt solution (HBSS) for 3 hours to induce a starvation condition (starv.), and the results were compared with samples treated with CD1-012 (15 μM) for 18 hours using a confocal microscope.
To this end, the human normal lung cell line BEAS-2B, expressing mt-Keima fluorescent protein, was treated with CD1-012, Comparative Example 2 (palmatine), or Comparative Example 3 (berberine) at various concentrations, and the mitophagy-inducing activity of each sample was compared.

SH-SYSY cell line = experiment: mitophagy activity by flow cytometry in SH-SY5Y cells expressing mt-Keima; format: cell-based, human; conditions: FACS
Description: (§3) It was confirmed whether CD1-012 synthesized in Example 1 increases mitophagy activity in various cell lines. To this end, CD1-012 and Comparative Example 1 (CCCP) were treated in the SH-SYSY cell line, a human neuroblastoma cell line expressing mt-Keima fluorescent protein, and in the HeLa-Parkin cell line, a HeLa cervical cancer cell line expressing Parkin (E3 ligase). Following this treatment, the mitophagy activity of each sample was analyzed using flow cytometry (FACS), and the results are shown in FIGS. 2A to 2B.

HeLa-Parkin cell line = experiment: mitophagy activity by flow cytometry in HeLa-Parkin cells; format: cell-based; conditions: FACS
Description: as §3

BEAS-2B cell line [5] = experiment: autophagy activity, Keima fluorescent protein in BEAS-2B cells (confocal microscope); format: cell-based, human; conditions: BEAS-2B Keima; 15 μM 18 hours, FIG. 4B
Description: as §2

143B MELAS cell line [6] = experiment: mitophagy activity, mt-Keima in 143B MELAS cell line (FACS, confocal microscope); format: cell-based; conditions: 143B MELAS mt-Keima
Text: (§4) In the previous example, it was confirmed that mitochondrial dysfunction occurs in the MELAS syndrome cell line, and in the present example, it was confirmed whether the compound according to the present invention can promote mitophagy in the MELAS syndrome cell line. In order to verify the mitophagy activity-promoting effect of the CD1-012 compound in the 143B MELAS cell line, a mitophagy quantification method using the mt-Keima fluorescent protein, which enables quantitative measurement of mitophagy activity in live cells, was used (2015 Mol Cell, 60 (4): 685-696.doi: 10.1016/j.molcel.2015.10.009:2018 J Vis Exp. (138): 58099 doi: 10.3791/58099.). Specifically, mt-Keima fluorescent protein was expressed in the 143B MELAS cell line, and after treatment with CD1-012 at various concentrations, mitophagy activity was measured using a mitophagy activity measurement method using a fluorescence-activated cell sorter (FACS) or a confocal microscope. […] Additionally, as a result of investigating the reduction of mitochondrial proteins associated with increased mitophagy activity by Western blot, it was confirmed that the levels of SDHA and COX4 proteins decreased when treated with CD1-012 at concentrations of 10 μM or higher (FIG. 9C).

143B MELAS cell line [7] = experiment: mitochondrial protein levels by Western blot in MELAS cell line; format: cell-based; conditions: FIG. 9C
Text: as §4

143B MELAS cell line [8] = experiment: ATP synthesis in 143B MELAS cell line; format: cell-based; conditions: 40 μM for 24 hours, measured 2 days later
Description: As confirmed through the previous examples, the compound according to the present invention can promote mitophagy in MELAS syndrome cells, and in the present example, it was confirmed whether the compound can improve mitochondrial dysfunction in MELAS syndrome cells. For this purpose, CD1-012 (40 μM) was treated in the 143B MELAS cell line for 24 hours, and ATP synthesis was measured 2 days later.

[9] = system: MELAS syndrome patient-derived cells; experiment: mitochondrial protein levels (SDHA, SDHB) by Western blot in MELAS syndrome patient-derived cells; format: cell-based, human; conditions: 24 hours
Description: As confirmed in the previous example, mitochondrial dysfunction is observed in MELAS syndrome patient-derived cells, and in the present example, it was confirmed whether the compound according to the present invention can promote mitophagy activity in MELAS syndrome patient-derived cells. CD1-012 was treated in MELAS syndrome patient-derived cells at concentrations of 20 μM or 40 μM for 24 hours, and the levels of mitochondrial proteins SDHA and SDHB were analyzed by Western blot.

[10] = system: MELAS syndrome patient-derived cells; experiment: ATP levels in MELAS syndrome patient-derived cells; format: cell-based, human; conditions: 40 μM for 24 hours, measured 2 days later, untreated 76%
Description: In this example, it was confirmed whether the compound according to the present invention can improve mitochondrial dysfunction in MELAS syndrome patient-derived cells. CD1-012 was treated in MELAS syndrome patient-derived cells at a concentration of 40 μM for 24 hours, and ATP levels were measured 2 days later. As a result, it was confirmed that the ATP levels in MELAS syndrome patient-derived cells, which had decreased to 76% of those in normal cells, were restored to 95% of normal levels by CD1-012 treatment (FIG. 13).

N#CC(C#N)=NNc1cccc(Cl)c1 [CCCP, Carbonyl Cyanide 3-Chlorophenylhydrazone, reference compound]
mitochondrial membrane potential [1]: significantly reduced
mitochondrial ROS levels [2]: significantly increased
mitophagy activation in PINK1 knockdown cell line (shPINK1) compared to control cell line (shNT) [3]: significantly decreased

Oc1cc2c(cc1O)-c1cc3ccc(O)c(O)c3c[n+]1CC2 [CD1-012, 2,3,9,10-Tetrahydroxy-5,6-dihydroisoquinolino [3,2-a]isoquinolin-7-iumbromide]
mitophagy activity compared with CCCP-treated sample (FIG. 1A) (BEAS-2B cell line [4]; FACS, 15 μM 24 hours vs CCCP 10 μM): increased as significantly as
concentration at which mitophagy activity reached a level comparable to the maximum of palmatine and berberine (BEAS-2B cell line [4]; FIG. 5): 10 UM
mitophagy-inducing activity relative to berberine (BEAS-2B cell line [4]; FIG. 5): approximately 8 times
mitophagy-inducing activity relative to palmatine (BEAS-2B cell line [4]; FIG. 5): approximately 40 times
concentration at which mitophagy activity began to significantly increase compared to untreated control (BEAS-2B cell line [4]; flow cytometer, FIG. 3A): ≥ 7.5 µM
mitophagy-promoting effect compared with CCCP (confocal microscope) (BEAS-2B cell line [4]; 15 μM 18 hours vs CCCP 10 μM, FIG. 4A): mitophagy-promoting effects similar to those observed in the CCCP-treated sample
mitophagy activity compared to the untreated control group (Con) (BEAS-2B cell line [4]; 15 μM 24 hours (FACS), 15 μM 18 hours (confocal), 20 μM 24 hours (mito-YFP)): significant increase in mitophagy activity
treatment time after which mitophagy activity began to significantly increase (BEAS-2B cell line [4]; 15 μM, FIG. 3B): 3 h
treatment time at which mitophagy activity reached its maximum level (BEAS-2B cell line [4]; 15 μM, FIG. 3B): 18 h
concentration dependence of mitophagy activity (BEAS-2B cell line [4]; up to the maximum treatment concentration of 17.5 μM): continued to increase in a concentration-dependent manner
mitophagy activity compared to the control group (Con) (SH-SYSY cell line): significantly increased mitophagy activity
mitophagy activity compared to the control group (Con) (HeLa-Parkin cell line): significantly increased mitophagy activity
autophagy activity compared to the untreated control group (BEAS-2B cell line [5]): no significant difference in autophagy activity
mitochondrial membrane potential [1]: no decrease in mitochondrial membrane potential was observed
mitochondrial ROS levels [2]: no increase in mitochondrial ROS was detected
mitophagy activation in PINK1 knockdown cell line (shPINK1) compared to control cell line (shNT) [3]: did not show a significant difference
concentration at which mitophagy activity in the MELAS cell line significantly increased (flow cytometry) (143B MELAS cell line [6]; FIG. 9A): ≥ 10 µM
mitophagy activity by confocal microscopy analysis (143B MELAS cell line [6]; 20 μM and 40 μM, FIG. 9B): increase in mitophagy activity
concentration at which the levels of SDHA and COX4 proteins decreased (143B MELAS cell line [7]): ≥ 10 µM
ATP level relative to the normal cell line levels (143B MELAS cell line [8]): 90%
increase in ATP levels versus untreated MELAS cells (143B MELAS cell line [8]): 131%
ATP levels (143B MELAS cell line [8]; untreated MELAS cells 39.6 nM): 51.9 nM
mitochondrial protein levels (SDHA, SDHB) compared to the untreated control group ([9]; 20 μM): decrease in mitochondrial protein levels
mitochondrial protein expression (SDHA, SDHB) compared to the untreated control group ([9]; 40 μM): more pronounced decrease in mitochondrial protein expression
ATP levels relative to normal cells [10]: 95%

COc1ccc2cc3[n+](cc2c1OC)CCc1cc2c(cc1-3)OCO2 [berberine, Berberine, reference compound]
concentration at which mitophagy activity reached its maximum (BEAS-2B cell line [4]; FIG. 5): 80 µM

COc1cc2c(cc1OC)-c1cc3ccc(OC)c(OC)c3c[n+]1CC2 [palmatine, Palmatine, reference compound]
concentration at which mitophagy activity reached its maximum (BEAS-2B cell line [4]; FIG. 5): 400 µM
